Results: patent US20100035911A1, “DRUG COMBINATIONS TO TREAT HYPERPROLIFERATIVE DISORDERS” (priority 2006, published 2010)

Key:
[1] = system: human Ramos Burkitts lymphoma cell line; experiment: Survival of mice bearing Ramos lymphoma subcutaneous xenografts; format: in vivo; settings: single agents at the drug doses employed
Protocol: Treating lymphoma xenografts with fenretinide combined with vincristine. […] Testing of fenretinide+vincristine was carried out as described for fenretinide+ABT-751 in Example 1, except that vincristine was given by i.p. injection twice a week during the 5 day administration of fenretinide.

[2] = cited from earlier work
[3] = system: human ovarian cancer cell line, CRL-1572; experiment: Survival of mice bearing CRL-1572 ovarian cancer subcutaneous xenografts; format: in vivo; settings: CRL-1572 xenografts; single agents at the drug doses employed
Description: Fenretinide combined with taxanes is active against ovarian cancer Xenografts. Based on the surprising and favorable results observed when combining ABT-751 with fenretinide with neuroblastoma xenografts and vincristine with fenretinide for a lymphoma xenograft, we explored other types of cancer as xenografts and we also sought to test taxanes for a possible increase in activity when combined with fenretinide.

[4] = system: human neuroblastoma cell line CHLA-136; experiment: Event-free survival of mice bearing CHLA-136 subcutaneous xenografts; format: in vivo, nu/nu mice; settings: CHLA-136 xenograft; single agents at the drug doses employed
Description: Treating cancer in xenografts with fenretinide+ABT-751. Administration of fenretinide and ABT-751 in combination to nu/nu mice bearing subcutaneous xenografts of multi-drug resistant neuroblastoma xenografts (tumor cell lines are described in: Keshelava N, Zuo J J, Chen P, Waidyaratine S N, Luna M C, Gomer C J, Triche T J, Reynolds C P: Loss of p53 function confers high-level multi-drug resistance in neuroblastoma cell lines. Cancer Research 61:6185-6193, 2001, and xenograft methods are described in: Reynolds, C P, Sun B C, DeClerck Y A, Moats R A: Assessing growth and response to therapy in murine tumor models. Methods in Molecular Medicine Chemosensitivity Vol 2 ed. Blumenthal R D, Totowa: Humana Press pp 335-350, 2005.
Mice were treated daily with ABT-751, and twice daily with fenretinide for 5 days/week. Fenretinide was given as a powder LXS formulation mixed with water (Maurer B J, Kalous O, Yesair D W, Wu X, Vratilova J, Maldonado V, Khankaldyyan V, Frgala T, Sun B C, McKee R T, Burgess S W, Shaw W A, Reynolds C P. Improved oral delivery of N-(4-hydroxyphenyl)retinamide with novel LYM-X-SORB™ organized lipid complex in mice. Clinical Cancer Research (In Press, 2007)). Both drugs were given to mice by gavage.

Row | Molecule | response of tumor cell line to single agent [1] | solubility in aqueous solution [2] | response of tumor cell line to single agent [3] | response of xenograft to single agent [4]
1 | CC1=C(/C=C/C(C)=C/C=C/C(C)=C/C(=O)Nc2ccc(O)cc2)C(C)(C)CCC1 [fenretinide, all-trans-N-(4-hydroxyphenyl)retinamide] | minimally responsive | minimally soluble | minimally responsive | minimally response
2 | vincristine | minimally responsive | – | – | –
3 | CC(=O)O[C@H]1C(=O)[C@@]2(C)[C@H]([C@H](OC(=O)c3ccccc3)[C@]3(O)C[C@H](OC(=O)[C@H](O)[C@@H](NC(=O)c4ccccc4)c4ccccc4)C(C)=C1C3(C)C)[C@]1(OC(C)=O)CO[C@@H]1C[C@@H]2O [paclitaxel] | – | – | minimally responsive | –
4 | COc1ccc(S(=O)(=O)Nc2cccnc2Nc2ccc(O)cc2)cc1 [ABT-751] | – | – | – | minimally response
